From patent US20230416262A1, “TRPML MODULATORS” (Casma Therapeutics, Inc., priority 2020, published 2023)

Tested on: THP-1 cells
Assay: Lamp1 lysosomal exocytosis assay
Type: cell-based
Conditions: Homo sapiens, 55 min, 55 min incubation, top dose 20 μM
Method: For the Lamp1 lysosomal exocytosis assay, a human monocytic suspension cell line (THP-1) was used. Cells in culture should be used between a density of […] and 1.2e6/mL on the day of the assay. For each 96-well assay plate to be used, pellet 11e6 THP-1 cells at 330×g for 5 min in a 50 mL conical tube, aspirate media and resuspend in 22 mLs of RPMI 1640/10% FBS media for a final cell concentration of 5e5/mL. Prior to addition of cells to the assay plate, perform a 7 pt dilution curve using a top dose of compound at 2 mM and use a 3-fold serial dilution, the 8th point is DMSO only. Final top dose of compound in the assay was 20 μM. 2 μL of each serial dilution was transferred to a new 96-well v-bottom assay plate. 198 μL of cells (1e5 total cells/well) was prepared as above in each well of the assay plate and incubated at 37° C./5% CO2/95% RH for 55 min. After the 55 min incubation, cells were pelleted for 5 min at 4 C at 400×g in a tabletop centrifuge. The media was separated from the cell pellets in the plate. The pellets were washed using 200 μL ice cold buffer (PBS Ca^++/Mg^++ containing 2% final BSA and 80 μM final Dynasore). Cells were pelleted again at 400×g-5 min in a 4° C. tabletop centrifuge. Buffer was separated from cells. Each well was suspended in 75 uL Lamp1-PE antibody buffer (PBS Ca^++/Mg^++ containing 2% final BSA with 80 uM final Dynasore and 1:800 final dilution of Lamp 1-PE labeled antibody). After a 45 min antibody incubation on ice, 25 μL of sytox green was added (I drop/mL buffer), and each well was mixed and incubated for an additional 15 min on ice. After the 15 min sytox green incubation, 100 μL of ice-cold buffer (PBS Ca^++/Mg^++ containing 2% final BSA and 80 uM final Dynasore) was added and cells were pelleted for 5 min at 400×g. The buffer was removed and each sample was resuspended in 100 uL of ice-cold buffer (PBS Ca^++/Mg^++ containing 2% final BSA and 80 μM final Dynasore). FACs gating strategy: FACS analyze for sytox green (A488) and Lamp1-PE (DsRed). First gate against FSC-A/SSC-A to find non-fragmented or ‘live’ THP-1 cells. Next gate against FITC-A/FSC-A to omit sytox green positive cells. Then gate for FSC-A/FSC-H to remove any doublet cells. The last gate was a histogram for PE. The statistics for ‘count’ and ‘geometric mean fluorescence intensity’ (gWFI) for PE were repoted on the last gate.
Compounds having an activity designated as “++++” provided an exocytosis readout of ≤0.50 μM; compounds having an activity designated as “+++” provided an exocytosis readout of 0.51-1.00 μM; compounds having an activity designated as “++” provided an exocytosis readout of 1.01-5.00 μM; and compounds having an activity designated as “+” provided an exocytosis readout of ≥5.01 μM

Structure (SMILES)	EC50 [µM]
CCn1ccc(COC(=O)N2CCC3(CC2)CN(S(=O)(=O)c2ccc(C(F)F)cc2)c2ccccc23)n1 [Compound I-177, (1-ethyl-1H-pyrazol-3-yl)methyl 1-((4-(difluoromethyl)phenyl)sulfonyl)spiro[indoline-3,4′-piperidine]-1′-carboxylate]	0.51 to 1
CCn1cc(CNC(=O)C2CCC3(CC2)CN(S(=O)(=O)c2ccc(C(F)F)cc2)c2ccccc23)cn1 (stereo not drawn) [Compound I-241, 1′-((4-(difluoromethyl)phenyl)sulfonyl)-N-((1-ethyl-1H-pyrazol-4-yl)methyl)spiro[cyclohexane-1,3′-indoline]-4-carboxamide]	≥ 5.01
O=C(OCc1ccccc1)N1CCC2(CC1)CN(S(=O)(=O)c1ccc3c(c1)COC3)c1ccccc12 [Compound I-183, benzyl 1-((1,3-dihydroisobenzofuran-5-yl)sulfonyl)spiro[indoline-3,4′-piperidine]-1′-carboxylate]	≤ 0.5
CN(C(=O)C1CCC2(CC1)CN(S(=O)(=O)c1ccc(C(F)F)cc1)c1ccccc12)c1nccn1C (stereo not drawn) [Compound I-245, 1′-((4-(difluoromethyl)phenyl)sulfonyl)-N-methyl-N-(1-methyl-1H-imidazol-2-yl)spiro[cyclohexane-1,3′-indoline]-4-carboxamide]	≥ 5.01
Cn1cccc1NC(=O)N1CCC2(CC1)CN(S(=O)(=O)c1ccc(C(F)F)cc1)c1ccccc12 [Compound I-199, 1-((4-(difluoromethyl)phenyl)sulfonyl)-N-(1-methyl-1H-pyrrol-2-yl)spiro[indoline-3,4′-piperidine]-1′-carboxamide]	≥ 5.01
O=C(C1CCC2(CC1)CN(S(=O)(=O)c1ccc(C(F)F)cc1)c1ccccc12)N1CCCC1 (stereo not drawn) [Compound I-237, (1′-((4-(difluoromethyl)phenyl)sulfonyl)spiro[cyclohexane-1,3′-indolin]-4-yl)(pyrrolidin-1-yl)methanone]	≥ 5.01
O=C(C1CCC2(CC1)CN(S(=O)(=O)c1ccc(C(F)F)cc1)c1ccccc12)N1CCC(F)(F)CC1 (stereo not drawn) [Compound I-239, (1′-((4-(difluoromethyl)phenyl)sulfonyl)spiro[cyclohexane-1,3′-indolin]-4-yl)(4,4-difluoropiperidin-1-yl)methanone]	≥ 5.01
O=C(Nc1cccnc1)N1CCC2(CC1)CN(S(=O)(=O)c1ccc(C(F)F)cc1)c1ccccc12 [Compound I-198, 1-((4-(difluoromethyl)phenyl)sulfonyl)-N-(pyridin-3-yl)spiro[indoline-3,4′-piperidine]-1′-carboxamide]	≥ 5.01
O=C(NCc1ccccc1)C1CCC2(CC1)CN(S(=O)(=O)c1ccc(C(F)F)cc1)c1ccccc12 (stereo not drawn) [Compound I-143, N-benzyl-1′-((4-(difluoromethyl)phenyl)sulfonyl)spiro[cyclohexane-1,3′-indoline]-4-carboxamide]	≥ 5.01
O=C(Nc1cncc(F)c1)N1CCC2(CC1)CN(S(=O)(=O)c1ccc(C(F)F)cc1)c1ccccc12 [Compound I-210, 1-((4-(difluoromethyl)phenyl)sulfonyl)-N-(5-fluoropyridin-3-yl)spiro[indoline-3,4′-piperidine]-1′-carboxamide]	≥ 5.01
O=C(C1CCC2(CC1)CN(S(=O)(=O)c1ccc(C(F)F)cc1)c1ccccc12)N1CCOCC1 (stereo not drawn) [Compound I-238, (1′-((4-(difluoromethyl)phenyl)sulfonyl)spiro[cyclohexane-1,3′-indolin]-4-yl)(morpholino)methanone]	≥ 5.01
O=C(OCc1ccncc1)N1CCC2(CC1)CN(S(=O)(=O)c1ccc(C(F)F)cc1)c1ccccc12 [Compound I-159, pyridin-4-ylmethyl 1-((4-(difluoromethyl)phenyl)sulfonyl)spiro[indoline-3,4′-piperidine]-1′-carboxylate]	≥ 5.01
Cn1cnc(COC(=O)N2CCC3(CC2)CN(S(=O)(=O)c2ccc(C(F)F)cc2)c2ccccc23)c1 [Compound I-172, (1-methyl-1H-imidazol-4-yl)methyl 1-((4-(difluoromethyl)phenyl)sulfonyl)spiro[indoline-3,4′-piperidine]-1′-carboxylate]	≥ 5.01
CCn1cc(NC(=O)N2CCC3(CC2)CN(S(=O)(=O)c2ccc(C(F)F)cc2)c2ccccc23)cn1 [Compound I-207, 1-((4-(difluoromethyl)phenyl)sulfonyl)-N-(1-ethyl-1H-pyrazol-4-yl)spiro[indoline-3,4′-piperidine]-1′-carboxamide]	≥ 5.01
O=S1(=O)CCC2(CC1)CN(S(=O)(=O)c1ccc(C(F)F)cc1)c1ccccc12 [Compound I-152, 1-((4-(difluoromethyl)phenyl)sulfonyl)-2′,3′,5′,6′-tetrahydrospiro[indoline-3,4′-thiopyran] 1′,1′-dioxide]	≥ 5.01

Other lines, results leading:

EC50 [µM]	Structure (SMILES)
≥ 5.01	O=C(NCC1CC1)C1CCC2(CC1)CN(S(=O)(=O)c1ccc(C(F)F)cc1)c1ccccc12 (stereo not drawn) [Compound I-236, N-(cyclopropylmethyl)-1′-((4-(difluoromethyl)phenyl)sulfonyl)spiro[cyclohexane-1,3′-indoline]-4-carboxamide]
≥ 5.01	Cc1cc(CNC(=O)N2CCC3(CC2)CN(S(=O)(=O)c2ccc(C(F)F)cc2)c2ccccc23)no1 [Compound I-211, 1-((4-(difluoromethyl)phenyl)sulfonyl)-N-((5-methylisoxazol-3-yl)methyl)spiro[indoline-3,4′-piperidine]-1′-carboxamide]
≥ 5.01	O=C(NCC(F)(F)F)N1CCC2(CC1)CN(S(=O)(=O)c1ccc(C(F)F)cc1)c1ccccc12 [Compound I-201, 1-((4-(difluoromethyl)phenyl)sulfonyl)-N-(2,2,2-trifluoroethyl)spiro[indoline-3,4′-piperidine]-1′-carboxamide]
≥ 5.01	O=C(NCC1CC1)N1CCC2(CC1)CN(S(=O)(=O)c1ccc(C(F)F)cc1)c1ccccc12 [Compound I-193, N-(cyclopropylmethyl)-1-((4-(difluoromethyl)phenyl)sulfonyl)spiro[indoline-3,4′-piperidine]-1′-carboxamide]
≥ 5.01	O=C(NCC1CCOC1)N1CCC2(CC1)CN(S(=O)(=O)c1ccc(C(F)F)cc1)c1ccccc12 (stereo not drawn) [Compound I-204]
≥ 5.01	O=C(NC1CC1)N1CCC2(CC1)CN(S(=O)(=O)c1ccc(C(F)F)cc1)c1ccccc12 [Compound I-142, N-cyclopropyl-1-[4-(difluoromethyl)benzenesulfonyl]-1,2-dihydrospiro[indole-3,4′-piperidine]-1′-carboxamide]
≥ 5.01	O=C(Nc1cnsc1)N1CCC2(CC1)CN(S(=O)(=O)c1ccc(C(F)F)cc1)c1ccccc12 [Compound I-202, 1-((4-(difluoromethyl)phenyl)sulfonyl)-N-(isothiazol-4-yl)spiro[indoline-3,4′-piperidine]-1′-carboxamide]
≥ 5.01	CCOCCNC(=O)N1CCC2(CC1)CN(S(=O)(=O)c1ccc(C(F)F)cc1)c1ccccc12 [Compound I-196, 1-((4-(difluoromethyl)phenyl)sulfonyl)-N-(2-ethoxyethyl)spiro[indoline-3,4′-piperidine]-1′-carboxamide]
≥ 5.01	O=C(NCc1ccccc1)N1CCC2(CC1)CN(S(=O)(=O)c1ccc(C(F)F)cc1)c1ccccc12 [Compound I-179, N-benzyl-1-((4-(difluoromethyl)phenyl)sulfonyl)spiro[indoline-3,4′-piperidine]-1′-carboxamide]
≥ 5.01	Cc1cc(CNC(=O)N2CCC3(CC2)CN(S(=O)(=O)c2ccc(C(F)F)cc2)c2ccccc23)on1 [Compound I-212]
≥ 5.01	O=C(NC1CC(F)(F)C1)N1CCC2(CC1)CN(S(=O)(=O)c1ccc(C(F)F)cc1)c1ccccc12 [Compound I-206, N-(3,3-difluorocyclobutyl)-1-((4-(difluoromethyl)phenyl)sulfonyl)spiro[indoline-3,4′-piperidine]-1′-carboxamide]
≥ 5.01	O=C(NCC1CCOCC1)N1CCC2(CC1)CN(S(=O)(=O)c1ccc(C(F)F)cc1)c1ccccc12 [Compound I-215, 1-((4-(difluoromethyl)phenyl)sulfonyl)-N-((tetrahydro-2H-pyran-4-yl)methyl)spiro[indoline-3,4′-piperidine]-1′-carboxamide]
